Test in all cases: growth of human tumour cells (NCI), 48 h
In assay [1] the test system is PC-3.
In assay [2] the test system is SNB-75.
Assay [3] relates to SF-268.
The subject of assay [4] is LOX IMVI.
Assay [5] relates to TK-10.
The test system of assay [6] is UACC-62.
Assay [7] has as its system A498.
Assay [8] deals with SK-MEL-2.
Assay [9] deals with ACHN.
Assay [10] concerns OVCAR-8.
Assay [11] deals with DU-145.
Assay [12] relates to MDA-N.
Assay [13] deals with SW-620.
Assay [14] relates to SR.
Assay [15] deals with SK-MEL-28.
The test system of assay [16] is CAKI-1.
For assay [17], the system named is BT-549.
In assay [18] the test system is HT-29.
In assay [19] the test system is HCC 2998.
Assay [20] concerns HL-60.

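Each compound was tested at five concentrations against cells in 96-well plates for 48 hours. Here, GI50 denotes the concentration required for 50% inhibition of growth.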 The source made the active and inactive calls. No stated cut-off is given here; in the data, active = GI50 up to about 1.1 µM and inactive = higher. Where only a bound is given, the exact number is not on record here.

On to `CC1(C)SC2C(C(=O)O)N=C(Cc3ccccc3)N2C1C(=O)O` (stereo not given), for which the GI50 in [1] is 42.7 µM (inactive); in assay [2], 19.6 µM (inactive); in assay [3] it was 30.1 µM (inactive); in assay [4] it was 25.5 µM (inactive); in assay [5] it was 20.4 µM (inactive); in assay [6] it was > 100 µM (inactive). Moreover, the GI50 is 53.7 µM (inactive) in assay [7]; > 100 µM (inactive) in [8]; 38.9 µM (inactive) in [9]; 37.3 µM (inactive) in [10]; 56.6 µM (inactive) in assay [11]; 49 µM (inactive) in assay [12]. The GI50 is 60.3 µM (inactive) in assay [13]; 33.9 µM (inactive) in [14]; 52.4 µM (inactive) in assay [15]; 43.7 µM (inactive) in assay [16]; 31 µM (inactive) in [17]; 13.6 µM (inactive) in assay [18]. Further, in [19], the GI50 was 25.3 µM (inactive).

Regarding `CO[P@@]1(=O)O[C@@H](c2ccccc2)[C@H](O)[C@]1(O)c1ccccc1`, the GI50 in [1], in [2], in assay [3], in assay [4], in assay [5] and in [6] was > 100 µM (inactive) throughout. The GI50 in [7], in assay [8], in assay [20], in [9], in assay [10] and in [11] was > 100 µM (inactive) in each case. Further, the GI50 in [12], in [13], in assay [14], in assay [15], in assay [16] and in [17] was > 100 µM (inactive) throughout. The GI50 in [18] was 34 µM (inactive).

In the case of `N=C(N)C1CN(CCc2c[nH]c3ccccc23)C(=O)NC1=O` (stereo not given), the GI50 in assay [1], in [2], in [3], in assay [4], in assay [5] and in [6] was > 100 µM (inactive) in each case. The GI50 in assay [7], in [20], in [9], in assay [10], in [11] and in assay [12] was > 100 µM (inactive) throughout. Besides, the GI50 in assay [13], in assay [14], in assay [15], in [17], in [18] and in [19] was > 100 µM (inactive) each time.

As for `C=C1C(=O)C2=C[C@H]1C[C@H](O)C(=O)[C@]1(C)CCCC(C)(C)[C@H]1C[C@H]2O`, the GI50 in assay [1] is 1.92 µM (inactive); in [2] it was 5.58 µM (inactive); in assay [3] it was 4.38 µM (inactive); in assay [4] it was 0.916 µM (active); in assay [5], 0.787 µM (active); in [6] it was 1.59 µM (inactive). Also, the GI50 in assay [7] is 1.86 µM (inactive); in assay [8] it was 7.19 µM (inactive); in assay [20], 0.237 µM (active); in assay [9] it was 0.452 µM (active); in assay [10], 2.33 µM (inactive); in [11], 1.77 µM (inactive). The GI50 is 1.93 µM (inactive) in assay [12]; 0.583 µM (active) in assay [13]; 0.358 µM (active) in assay [14]; 1.73 µM (inactive) in assay [15]; 1.48 µM (inactive) in assay [16]; 2.16 µM (inactive) in assay [17]. Also, the GI50 in [18] was 1.47 µM (inactive).

With `CC[C@H](C)C1=C(O)[N@+]2([O-])Oc3ccc(-c4c(O)c(O)c(-c5ccc(O)cc5)c(OC(C)=O)c4OC(C)=O)cc3O[C@]2([C@@H](C)CC)C(=O)N1O`, the GI50 in assay [1] was 22.2 µM (inactive); in assay [3], 27.5 µM (inactive); in assay [4], 22.4 µM (inactive); in assay [5], 24.3 µM (inactive); in [6] it was 17.4 µM (inactive); in assay [7], 13.9 µM (inactive). The GI50 in [8] is > 50 µM (inactive); in [20], 17.7 µM (inactive); in assay [9], 22.5 µM (inactive); in [10] it was 27 µM (inactive); in [11], 33.3 µM (inactive); in assay [12], 29.2 µM (inactive). Further, the GI50 in assay [13] was 15.7 µM (inactive); in assay [14] it was 23.5 µM (inactive); in assay [15], 46.8 µM (inactive); in assay [16], 28.8 µM (inactive); in assay [17] it was 25.6 µM (inactive); in [18], 15.7 µM (inactive).

As to `Cc1ccc(C(C)C)c(OCC(=O)N/N=C/c2c[nH]c3ccc(Br)cc23)c1`, the GI50 was 0.625 µM (active) in assay [1]; 2.13 µM (inactive) in [2]; 7.85 µM (inactive) in [3]; 3.69 µM (inactive) in assay [4]; 2.4 µM (inactive) in [5]; 2.29 µM (inactive) in [6]. The GI50 was 4.09 µM (inactive) in [7]; 2.44 µM (inactive) in assay [8]; 2.37 µM (inactive) in assay [20]; 4.85 µM (inactive) in assay [9]; 3.95 µM (inactive) in assay [10]; 2.56 µM (inactive) in assay [11]. Further, the GI50 in [12] is 0.923 µM (active); in assay [13], 3.61 µM (inactive); in assay [14] it was 0.698 µM (active); in assay [15] it was 8.93 µM (inactive); in assay [16] it was 2.55 µM (inactive); in [17], 4.99 µM (inactive). For the same compound, in assay [18], the GI50 is 2.11 µM (inactive).

As to `O=[N+]([O-])c1cc(C2(N3CCCCC3)CCCCC2)sc1Br`, the GI50 in assay [1] was 4.06 µM (inactive); in assay [3], 7.5 µM (inactive); in assay [4], 2.82 µM (inactive); in assay [5] it was 2.39 µM (inactive); in assay [6] it was 11.3 µM (inactive); in assay [7], 5.92 µM (inactive). The GI50 was 7.06 µM (inactive) in [8]; 2.34 µM (inactive) in [20]; 3.98 µM (inactive) in assay [9]; 6.31 µM (inactive) in [10]; 3.18 µM (inactive) in assay [11]; 6.41 µM (inactive) in assay [12]. Also, the GI50 is 4.09 µM (inactive) in assay [13]; 2.99 µM (inactive) in [14]; 5.41 µM (inactive) in assay [15]; 6 µM (inactive) in assay [16]; 6.82 µM (inactive) in assay [17]; 3.87 µM (inactive) in assay [18]. For the same compound, in assay [19], the GI50 is 1.74 µM (inactive).

Take `CCOC(=O)c1cc2c3c(c(C(C)=O)c(O)c2[nH]1)N(CC(C)CC)CC3` (stereo not given): the GI50 in [1] is 66.8 µM (inactive); in [2] it was 30.7 µM (inactive); in assay [3] it was 35 µM (inactive); in assay [4] it was 42.2 µM (inactive); in assay [5] it was > 100 µM (inactive); in [6] it was 71.6 µM (inactive). The GI50 was 80.9 µM (inactive) in assay [7]; > 100 µM (inactive) in assay [8]; 28.8 µM (inactive) in assay [20]; > 100 µM (inactive) in assay [9]; 61.7 µM (inactive) in assay [10]; > 100 µM (inactive) in assay [11]. Besides, the GI50 is 35.7 µM (inactive) in [12]; > 100 µM (inactive) in [13]; 27.4 µM (inactive) in assay [14]; > 100 µM (inactive) in [15]; 64.9 µM (inactive) in assay [16]; 45.5 µM (inactive) in assay [17]. In addition, the GI50 in assay [18] is > 100 µM (inactive).

Consider `OC1(c2ccc(Cl)cc2)C(N2CCCC2)c2ccccc2C2=NCCN21` (stereo not given), for which the GI50 is 30 µM (inactive) in [1]; 47.5 µM (inactive) in assay [3]; 18.1 µM (inactive) in [4]; 14.6 µM (inactive) in assay [5]; 16.6 µM (inactive) in assay [6]; 21.2 µM (inactive) in [7]. Further, the GI50 in assay [8] is 21.9 µM (inactive); in [20], 20.7 µM (inactive); in assay [9], 30.3 µM (inactive); in [10], 23.9 µM (inactive); in assay [11] it was 32.4 µM (inactive); in assay [12], 17.8 µM (inactive). For the same compound, the GI50 was 20.3 µM (inactive) in assay [13]; 15.1 µM (inactive) in assay [14]; 13.9 µM (inactive) in assay [15]; 26.5 µM (inactive) in [16]; 27 µM (inactive) in [17]; 7.13 µM (inactive) in assay [18].

For the compound `C#Cc1nc(N)c2ncn(C3OC(COS(N)(=O)=O)C(O)C3O)c2n1` (stereo not given), the GI50 is < 0.0204 µM (active) in assay [1]; 0.02 µM (active) in [2]; 0.018 µM (active) in [3]; < 0.0176 µM (active) in assay [4]; < 0.022 µM (active) in [5]; 0.0537 µM (active) in [6]. Moreover, the GI50 in assay [7] is < 0.0148 µM (active); in assay [8], 0.0101 µM (active); in [9], < 0.0146 µM (active); in assay [10] it was 0.0188 µM (active); in assay [11], 0.0518 µM (active); in assay [12], < 0.0168 µM (active). The GI50 in assay [13] was < 0.0248 µM (active); in assay [14] it was < 0.01 µM (active); in assay [15] it was 0.0374 µM (active); in assay [16], 0.0559 µM (active); in assay [17] it was < 0.01 µM (active); in assay [18], 0.0233 µM (active). Moreover, the GI50 in assay [19] is < 0.01 µM (active).

For the compound `C=C=C(C)C(=O)N(C(C)C)C(C)C`, the GI50 in assay [1], in [2], in assay [3], in assay [4], in [5] and in assay [6] was > 100 µM (inactive) in each case. Further, the GI50 in assay [7], in assay [20], in assay [9], in assay [10], in assay [11] and in [12] was > 100 µM (inactive) each time. In addition, the GI50 in assay [13], in assay [14], in assay [15], in [17], in assay [18] and in assay [19] was > 100 µM (inactive) in each case.

These data come from ChEMBL document CHEMBL1201862, “PubChem BioAssay data set” (2004).
